Bridge positions count the residues as written; N and C are the ends. Square brackets hold non-standard residues; d marks the D form. Peptide text beside a SMILES is read from it. * marks the point of attachment. NMeF = CN[C@@H](Cc1ccccc1)C(=O)O; NMeA = CN[C@@H](C)C(=O)O; Propionyl = CCC(=O)*
These compounds were tested against human Granzyme B (hGranzyme B) (Homo sapiens, UniProt P10144) (assay: Surface Plasmon Resonance (SPR) binding to human Granzyme B). Conditions: Table 8, 25° C.
Procedure: All reagents and solvents were purchased from commercial sources and used “as is” unless otherwise noted. Reaction progress and synthetic intermediate analysis were assessed by LCMS (UV detection with ESI, APCI, or other mass detection) when applicable using a MeCN/water gradient with either TFA, formic acid, or NH4HCO3 modifier. Silica gel and reverse-phase flash column chromatography were conducted with commercially available pre-packed columns. Reverse-phase preparative HPLC purification was performed on preparative HPLC instruments with UV and MS detection using a MeCN/water gradient with either TFA, formic acid, or NH4OH modifier. Unless otherwise noted, all KD data presented in tables refers to the surface plasmon resonance assay that is described in the Biological Assay section.
The kinetics of test peptide binding to human Granzyme B (hGranzyme B) was determined by SPR. All experiments were performed at 25° C. using the Biacore 8k+ instrument (Cytiva, Marlborough, MA). The Biacore 8k+ Insight Evaluation Software Version 3.0 was used to fit the data with a 1:1 binding model to determine the association rate constant ka (M^−1s^−1, where “M” equals molar and “s” equals seconds) and the dissociation rate constant kd (s^−1). These rate constants were used to calculate the equilibrium dissociation constant, KD (M)=kd/ka. To measure the binding kinetics of peptides of interest, surfaces were prepared by a capture method to a Series S Streptavidin (SA) chip using a 1×HBS-EP+ running buffer (Cytiva). hGranzyme B was diluted to 10 μg/mL in 1×HBS-EP+ and flowed over spot 2 of each flow cell on the chip at a flow rate of 10 μl/min for 20 s to achieve a level of capture of ~1100 RU. An unmodified spot 1 of each flow cell was used as a matrix binding control or reference surface. Binding kinetics were measured using single cycle kinetics at 25° C. by injecting 5 concentrations with 3-fold serial dilutions of test peptides from […] to 1 μM. Compound dilutions were performed manually in a running buffer containing 1×HBS-EP+(Cytiva), and a final concentration of 2% DMSO. The interaction analyses over hGranzyme B, were performed using a 120 s association time and a 900 s dissociation time. All experiments were conducted at a flow rate of […] with a data collection rate of 10 Hz.
Peptide dilution series included 2 zero concentration points (no compound) which were averaged and subtracted from the peptide concentration injection as DMSO control responses. Binding data acquired from the reference surface (matrix binding control) were subtracted from the binding data for hGranzyme B surface on the chip to determine specific binding. Next, the association phase data were solvent corrected to account for any signal fluctuation throughout the experiment due to subtle DMSO concentration differences. Corrected response data were analyzed using the Biacore 8k+ Evaluation Software Version 3.0 according to the manufacturer. SPR data for representative compounds of the disclosure are found in Table 8.

Chain of human Granzyme B (hGranzyme B) (P10144 21-247): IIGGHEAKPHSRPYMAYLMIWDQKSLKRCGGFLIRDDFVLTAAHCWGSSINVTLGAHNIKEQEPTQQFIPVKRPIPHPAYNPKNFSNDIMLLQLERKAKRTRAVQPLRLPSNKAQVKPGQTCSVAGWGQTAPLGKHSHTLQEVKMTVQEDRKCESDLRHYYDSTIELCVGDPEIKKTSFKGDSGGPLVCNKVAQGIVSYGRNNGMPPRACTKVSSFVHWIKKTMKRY

Question: With `CCC(=O)NCCCC[C@H](NC(=O)CNC(=O)CNC(=O)[C@@H]1CSCC(=O)N[C@@H](Cc2ccccc2)C(=O)N(C)[C@@H](Cc2ccccc2)C(=O)N(C)[C@@H](Cc2ccccc2)C(=O)N[C@@H](Cc2ccc(O)cc2)C(=O)N[C@@H](Cc2ccc(O)cc2)C(=O)N[C@@H](CC(=O)O)C(=O)N[C@@H](C(C)C)C(=O)N[C@@H](CC(=O)O)C(=O)N[C@@H](C(C)C)C(=O)N[C@@H](CC(=O)O)C(=O)N[C@@H](C(C)C)C(=O)N[C@@H](Cc2ccc(O)cc2)C(=O)N(C)[C@@H](Cc2ccccc2)C(=O)N[C@@H](Cc2c[nH]cn2)C(=O)N1)C(N)=O` [Compound 4a, *F.NMeF.NMeF.Y.Y.D.V.D.V.D.V.Y.NMeF.H.*C.G.G.K(Prop)-NH2] ({CH2CO}-F[NMeF][NMeF]YYDVDVDVY[NMeF]HCGGK(Propionyl)-NH2; thioether N-15) as the compound, how does the Kd read?
Answer: 1.1 nM

Question: Which Kd does the source give for `CC(C)[C@@H]1NC(=O)[C@H](CC(=O)O)NC(=O)[C@H](Cc2ccc(O)cc2)NC(=O)[C@H](Cc2ccc(O)cc2)NC(=O)[C@H](C)N(C)C(=O)[C@H](Cc2ccccc2)N(C)C(=O)[C@H](Cc2ccccc2)NC(=O)CSC[C@@H](C(=O)NCC(N)=O)NC(=O)[C@H](Cc2c[nH]cn2)NC(=O)[C@H](Cc2ccccc2)N(C)C(=O)[C@H](Cc2ccc(O)cc2)NC(=O)[C@H](C(C)C)NC(=O)[C@H](CC(=O)O)NC(=O)[C@H](C(C)C)NC(=O)[C@H](CC(=O)O)NC1=O` [Compound 24a, *F.NMeF.NMeA.Y.Y.D.V.D.V.D.V.Y.NMeF.H.*C.G-NH2] ({CH2CO}-F[NMeF][NMeA]YYDVDVDVY[NMeF]HCG-NH2; thioether N-15) here?
Answer: 5.4 nM

Question: Which Kd does the source give for `CC(C)[C@@H]1NC(=O)[C@H](CC(=O)O)NC(=O)[C@H](Cc2ccc(O)cc2)NC(=O)[C@H](Cc2ccc(O)cc2)NC(=O)[C@H](Cc2ccccc2)N(C)C(=O)[C@H](C)N(C)C(=O)[C@H](Cc2ccccc2)NC(=O)CSC[C@@H](C(=O)NCC(N)=O)NC(=O)[C@H](Cc2c[nH]cn2)NC(=O)[C@H](Cc2ccccc2)N(C)C(=O)[C@H](Cc2ccc(O)cc2)NC(=O)[C@H](C(C)C)NC(=O)[C@H](CC(=O)O)NC(=O)[C@H](C(C)C)NC(=O)[C@H](CC(=O)O)NC1=O` [Compound 25a, *F.NMeA.NMeF.Y.Y.D.V.D.V.D.V.Y.NMeF.H.*C.G-NH2] ({CH2CO}-F[NMeA][NMeF]YYDVDVDVY[NMeF]HCG-NH2; thioether N-15) here?
Answer: 199 nM

Question: For `CC(C)[C@@H]1NC(=O)[C@H](CC(=O)O)NC(=O)[C@H](C)NC(=O)[C@H](Cc2ccc(O)cc2)NC(=O)[C@H](Cc2ccccc2)N(C)C(=O)[C@H](Cc2ccccc2)N(C)C(=O)[C@H](Cc2ccccc2)NC(=O)CSC[C@@H](C(=O)NCC(N)=O)NC(=O)[C@H](Cc2c[nH]cn2)NC(=O)[C@H](Cc2ccccc2)N(C)C(=O)[C@H](Cc2ccc(O)cc2)NC(=O)[C@H](C(C)C)NC(=O)[C@H](CC(=O)O)NC(=O)[C@H](C(C)C)NC(=O)[C@H](CC(=O)O)NC1=O` [Compound 15a, *F.NMeF.NMeF.Y.A.D.V.D.V.D.V.Y.NMeF.H.*C.G-NH2] ({CH2CO}-F[NMeF][NMeF]YADVDVDVY[NMeF]HCG-NH2; thioether N-15), which Kd is on record?
Answer: 0.8 nM

Question: `CC(C)[C@@H]1NC(=O)[C@H](CC(=O)O)NC(=O)[C@H](C(C)C)NC(=O)[C@H](CC(=O)O)NC(=O)[C@H](C(C)C)NC(=O)[C@H](CC(=O)O)NC(=O)[C@H](Cc2ccc(O)cc2)NC(=O)[C@H](Cc2ccc(O)cc2)NC(=O)[C@H](Cc2ccccc2)N(C)C(=O)[C@H](Cc2ccccc2)N(C)C(=O)[C@H](Cc2ccccc2)NC(=O)CSC[C@@H](C(=O)NCC(N)=O)NC(=O)[C@H](Cc2c[nH]cn2)NC(=O)[C@H](Cc2ccccc2)N(C)C(=O)[C@H](C)NC1=O` [Compound 21a, *F.NMeF.NMeF.Y.Y.D.V.D.V.D.V.A.NMeF.H.*C.G-NH2] ({CH2CO}-F[NMeF][NMeF]YYDVDVDVA[NMeF]HCG-NH2; thioether N-15) was tested. Which Kd did it give?
Answer: 453 nM

Question: How did the Kd turn out when `CC(C)[C@@H]1NC(=O)[C@H](CC(=O)O)NC(=O)[C@H](Cc2ccc(O)cc2)NC(=O)[C@H](C)NC(=O)[C@H](Cc2ccccc2)N(C)C(=O)[C@H](Cc2ccccc2)N(C)C(=O)[C@H](Cc2ccccc2)NC(=O)CSC[C@@H](C(=O)NCC(N)=O)NC(=O)[C@H](Cc2c[nH]cn2)NC(=O)[C@H](Cc2ccccc2)N(C)C(=O)[C@H](Cc2ccc(O)cc2)NC(=O)[C@H](C(C)C)NC(=O)[C@H](CC(=O)O)NC(=O)[C@H](C(C)C)NC(=O)[C@H](CC(=O)O)NC1=O` [Compound 23a, *F.NMeF.NMeF.A.Y.D.V.D.V.D.V.Y.NMeF.H.*C.G-NH2] ({CH2CO}-F[NMeF][NMeF]AYDVDVDVY[NMeF]HCG-NH2; thioether N-15) was run?
Answer: 752 nM

Question: For `CC(C)[C@@H]1NC(=O)[C@H](CC(=O)O)NC(=O)[C@H](Cc2ccc(O)cc2)NC(=O)[C@H](Cc2ccc(O)cc2)NC(=O)[C@H](C)NC(=O)[C@H](Cc2ccccc2)N(C)C(=O)[C@H](Cc2ccccc2)NC(=O)CSC[C@@H](C(=O)NCC(N)=O)NC(=O)[C@H](Cc2c[nH]cn2)NC(=O)[C@H](Cc2ccccc2)N(C)C(=O)[C@H](Cc2ccc(O)cc2)NC(=O)[C@H](C(C)C)NC(=O)[C@H](CC(=O)O)NC(=O)[C@H](C(C)C)NC(=O)[C@H](CC(=O)O)NC1=O` [Compound 18a, *F.NMeF.A.Y.Y.D.V.D.V.D.V.Y.NMeF.H.*C.G-NH2] ({CH2CO}-F[NMeF]AYYDVDVDVY[NMeF]HCG-NH2; thioether N-15), which Kd is on record?
Answer: 68 nM

Question: How did the Kd turn out when `CC(C)[C@@H]1NC(=O)[C@H](CC(=O)O)NC(=O)[C@H](C)NC(=O)[C@H](CC(=O)O)NC(=O)[C@H](Cc2ccc(O)cc2)NC(=O)[C@H](Cc2ccc(O)cc2)NC(=O)[C@H](Cc2ccccc2)N(C)C(=O)[C@H](Cc2ccccc2)N(C)C(=O)[C@H](Cc2ccccc2)NC(=O)CSC[C@@H](C(=O)NCC(N)=O)NC(=O)[C@H](Cc2c[nH]cn2)NC(=O)[C@H](Cc2ccccc2)N(C)C(=O)[C@H](Cc2ccc(O)cc2)NC(=O)[C@H](C(C)C)NC(=O)[C@H](CC(=O)O)NC1=O` [Compound 20a, *F.NMeF.NMeF.Y.Y.D.A.D.V.D.V.Y.NMeF.H.*C.G-NH2] ({CH2CO}-F[NMeF][NMeF]YYDADVDVY[NMeF]HCG-NH2; thioether N-15) was run?
Answer: 288 nM

Question: Which Kd does the source give for `CC(C)[C@@H]1NC(=O)[C@H](CC(=O)O)NC(=O)[C@H](Cc2ccc(O)cc2)NC(=O)[C@H](Cc2ccc(O)cc2)NC(=O)[C@H](Cc2ccccc2)N(C)C(=O)[C@H](Cc2ccccc2)N(C)C(=O)[C@H](Cc2ccccc2)NC(=O)CSC[C@@H](C(=O)NCC(N)=O)NC(=O)[C@H](Cc2c[nH]cn2)NC(=O)[C@H](Cc2ccccc2)N(C)C(=O)[C@H](Cc2ccc(O)cc2)NC(=O)[C@H](C(C)C)NC(=O)[C@H](CC(=O)O)NC(=O)[C@H](C)NC(=O)[C@H](CC(=O)O)NC1=O` [Compound 16a, *F.NMeF.NMeF.Y.Y.D.V.D.A.D.V.Y.NMeF.H.*C.G-NH2] ({CH2CO}-F[NMeF][NMeF]YYDVDADVY[NMeF]HCG-NH2; thioether N-15) here?
Answer: 4.7 nM

Question: How did the Kd turn out when `CC(C)[C@@H]1NC(=O)[C@H](CC(=O)O)NC(=O)[C@H](Cc2ccc(O)cc2)NC(=O)[C@H](Cc2ccc(O)cc2)NC(=O)[C@H](Cc2ccccc2)N(C)C(=O)[C@H](Cc2ccccc2)N(C)C(=O)[C@H](Cc2ccccc2)NC(=O)CSC[C@@H](C(=O)NCC(=O)N[C@@H](CCCCN)C(=O)N[C@@H](CCCCN)C(N)=O)NC(=O)[C@H](Cc2c[nH]cn2)NC(=O)[C@H](Cc2ccccc2)N(C)C(=O)[C@H](Cc2ccc(O)cc2)NC(=O)[C@H](C(C)C)NC(=O)[C@H](CC(=O)O)NC(=O)[C@H](C(C)C)NC(=O)[C@H](CC(=O)O)NC1=O` [Compound 13a, *F.NMeF.NMeF.Y.Y.D.V.D.V.D.V.Y.NMeF.H.*C.G.K.K-NH2] ({CH2CO}-F[NMeF][NMeF]YYDVDVDVY[NMeF]HCGKK-NH2; thioether N-15) was run?
Answer: 0.1 nM

Question: For `CC(C)[C@@H]1NC(=O)[C@H](CC(=O)O)NC(=O)[C@H](C)NC(=O)[C@H](Cc2ccc(O)cc2)NC(=O)[C@H](Cc2ccccc2)N(C)C(=O)[C@H](Cc2ccccc2)N(C)C(=O)[C@H](Cc2ccccc2)NC(=O)CSC[C@@H](C(=O)NCC(=O)N[C@@H](CCCCN)C(=O)N[C@@H](CCCCN)C(N)=O)NC(=O)[C@H](Cc2c[nH]cn2)NC(=O)[C@H](Cc2ccccc2)N(C)C(=O)[C@H](Cc2ccc(O)cc2)NC(=O)[C@H](C(C)C)NC(=O)[C@H](CC(=O)O)NC(=O)[C@H](C(C)C)NC(=O)[C@H](CC(=O)O)NC1=O` [Compound 11a, *F.NMeF.NMeF.Y.A.D.V.D.V.D.V.Y.NMeF.H.*C.G.K.K-NH2] ({CH2CO}-F[NMeF][NMeF]YADVDVDVY[NMeF]HCGKK-NH2; thioether N-15), which Kd is on record?
Answer: 2.1 nM

Source: patent US20260297134A1, “CYCLIC PEPTIDES AS PET IMAGING AGENTS OF GRANZYME B” (Merck Sharp & Dohme LLC, priority 2023, published 2026)
